{"source": "patent US5252495A", "about": "“Immunoassay for physostigmine” (priority 1992, dated 1993)", "key": {"[1]": {"experiment": "Stability of physostigmine in rat plasma", "type": "in vitro ADME", "details": "for Amount Recovered: rat plasma", "experimental": "To show the stability of physostigmine in biological fluids, physostigmine was added to 2 portions of rat plasma. One half of the plasma was kept at room temperature and the other was kept at 4° C. Aliquots which originally contained 3.6 ng of physostigmine were assayed at various times. […] Since the samples were cooled and processed at 4° C., corrections for loss of physostigmine were unnecessary."}, "[2]": {"experiment": "Physostigmine pharmacokinetics and tissue concentrations in rats after intramuscular administration", "type": "in vivo, Male Sprague-Dawley rats", "details": "0.3 mg/kg intramuscular; for concentration at 0.5 h: 30 min; for concentration at 0.75 h: 45 min; for concentration at 1 h: 60 min; for concentration at 1.5 h: 90 min; for concentration at 2 h: 120 min", "experimental": "To study the pharmakinetics of physostigmine and validate the RIA and the antibody specificity of the present invention, rat studies were conducted. Male Sprague-Dawley rats weighing approximately 500 grams were housed two per cage at 23° C. with a twelve hour on-off light cycle. The animals were given food and water ad libitum. After sixty days, food was withheld for twelve hours. Physostigmine, comprised of a physostigmine base dissolved in a small volume of dilute hydrochloric acid and then diluted with phosphate buffered saline, with the pH of the solution adjusted to 6.0 was administered (0.3 mg. of the physostigmine solution/Kg) intramuscularly to the rats. Groups of three animals were sacrificed by using inhalation anesthetic, Fluothane (0.01% thymol, w/w; and 0.00025% ammonia, w/w) Ayerst Laboratories, New York, […] Blood, collected via heart puncture, and tissue samples were taken. Brain, fat, heart, muscle and spleen were removed and frozen on dry ice immediately. On the date of analysis the plasma and tissue samples were thawed. The tissues were weighed and homogenized with an equal volume of cold solution of 10 mM EDTA, 150 mM NaCl and 0.5% triton X-100, pH 7.4. The suspension Was centrifuged at 15,000×g in a Sorvall RC-5B centrifuge (Dupont) for 30 min at 4° C. The supernatent was collected and the pellet was Washed and centrifuged. The supernatants were combined and filtered through 1 um pore size filters (RC 60, 9 mm diameter from Schleicher and Schuell Inc., Keene, N.H.) and 100 ul of the filtrate was injected into the HPLC column.\nThe blood and tissue samples were used to determine the concentration of physostigmine as a function of time. FIG. 3 gives the physostigmine level in the plasma of three male rats for each time interval as determined by the RIA of the present invention, while Table 4 presents the concentration of physostigmine in various organs as a function of time."}, "[3]": {"details": "cited from earlier work"}, "[4]": {"details": "rat, brain, im, read-out: Tissue concentration of physostigmine, Brain"}, "[5]": {"details": "rat, fat, im, read-out: Tissue concentration of physostigmine, Fat"}, "[6]": {"details": "rat, heart, im, read-out: Tissue concentration of physostigmine, Heart"}, "[7]": {"details": "rat, muscle, im, read-out: Tissue concentration of physostigmine, Muscle"}, "[8]": {"details": "rat, spleen, im, read-out: Tissue concentration of physostigmine, Spleen"}}, "note": "Read-outs that look alike come from different tables or passages of the source.", "data": [{"smiles": "CNC(=O)Oc1ccc2c(c1)[C@]1(C)CCN(C)[C@@H]1N2C", "note": "[Physostigmine, physostigmine]", "values": [{"measurement": "Amount Recovered", "setting": "[1]; 4° C., 0 min, originally 3.6 ng", "value": 3.6, "unit": "ng"}, {"measurement": "Amount Recovered", "setting": "[1]; 4° C., 15 min", "value": 3.4, "unit": "ng"}, {"measurement": "Amount Recovered", "setting": "[1]; 4° C., 30 min", "value": 3.6, "unit": "ng"}, {"measurement": "Amount Recovered", "setting": "[1]; 4° C., 1 hr", "value": 3.8, "unit": "ng"}, {"measurement": "Amount Recovered", "setting": "[1]; 4° C., 2 hr", "value": 3.6, "unit": "ng"}, {"measurement": "Amount Recovered", "setting": "[1]; 4° C., 3 hr", "value": 3.6, "unit": "ng"}, {"measurement": "Amount Recovered", "setting": "[1]; 4° C., 4 hr", "value": 3.6, "unit": "ng"}, {"measurement": "Amount Recovered", "setting": "[1]; 23° C., 0 min, originally 3.6 ng", "value": 3.6, "unit": "ng"}, {"measurement": "Amount Recovered", "setting": "[1]; 23° C., 15 min", "value": 3.3, "unit": "ng"}, {"measurement": "Amount Recovered", "setting": "[1]; 23° C., 30 min", "value": 3.1, "unit": "ng"}, {"measurement": "Amount Recovered", "setting": "[1]; 23° C., 1 hr", "value": 2.7, "unit": "ng"}, {"measurement": "Amount Recovered", "setting": "[1]; 23° C., 2 hr", "value": 2.8, "unit": "ng"}, {"measurement": "Amount Recovered", "setting": "[1]; 23° C., 3 hr", "value": 2.8, "unit": "ng"}, {"measurement": "Amount Recovered", "setting": "[1]; 23° C., 4 hr", "value": 2.8, "unit": "ng"}, {"measurement": "remaining at 3 h", "setting": "[1]; rat, plasma, kept at 4° C. for 3 hr, read-out: physostigmine recovered from plasma samples", "value": "> 95", "unit": "%"}, {"measurement": "remaining at 0.25 h", "setting": "[1]; rat, plasma, processed within 15 min. at room temperature, read-out: physostigmine recovered from plasma samples", "value": "> 95", "unit": "%"}, {"measurement": "Tissue concentration of physostigmine, Brain", "setting": "[2]; 180 min", "value": 0.00, "unit": "ng/g"}, {"measurement": "Tmax", "setting": "[2]; im, rat, spleen, read-out: time during which spleen levels continued to increase (converted)", "value": 20, "unit": "min"}, {"measurement": "estimated plasma half-life during the rapid decline phase", "setting": "[2]; rat", "value": "approximately 15 min"}, {"measurement": "time until present in all of the tissues studied", "setting": "[2]; rat", "value": "≤ 2.5", "unit": "min"}, {"measurement": "tissue distribution", "setting": "[2]; rat", "value": "rapidly distributed to central as well as peripheral tissues"}, {"measurement": "tissues with highest tissue concentrations", "setting": "[2]; rat", "value": "heart and spleen"}, {"measurement": "concentration at 2.5 min", "setting": "[2]; [4]", "value": 331, "unit": "ng/g"}, {"measurement": "concentration at 5 min", "setting": "[2]; [4]", "value": 297, "unit": "ng/g"}, {"measurement": "concentration at 10 min", "setting": "[2]; [4]", "value": 292, "unit": "ng/g"}, {"measurement": "concentration at 20 min", "setting": "[2]; [4]", "value": 198, "unit": "ng/g"}, {"measurement": "concentration at 0.5 h", "setting": "[2]; [4]", "value": 173, "unit": "ng/g"}, {"measurement": "concentration at 0.75 h", "setting": "[2]; [4]", "value": 45.6, "unit": "ng/g"}, {"measurement": "concentration at 1 h", "setting": "[2]; [4]", "value": 15.7, "unit": "ng/g"}, {"measurement": "concentration at 1.5 h", "setting": "[2]; [4]", "value": 3.05, "unit": "ng/g"}, {"measurement": "concentration at 2 h", "setting": "[2]; [4]", "value": 0.53, "unit": "ng/g"}, {"measurement": "concentration at 2.5 min", "setting": "[2]; [5]", "value": 230, "unit": "ng/g"}, {"measurement": "concentration at 5 min", "setting": "[2]; [5]", "value": 533, "unit": "ng/g"}, {"measurement": "concentration at 10 min", "setting": "[2]; [5]", "value": 398, "unit": "ng/g"}, {"measurement": "concentration at 20 min", "setting": "[2]; [5]", "value": 360, "unit": "ng/g"}, {"measurement": "concentration at 0.5 h", "setting": "[2]; [5]", "value": 292, "unit": "ng/g"}, {"measurement": "concentration at 0.75 h", "setting": "[2]; [5]", "value": 95, "unit": "ng/g"}, {"measurement": "concentration at 1 h", "setting": "[2]; [5]", "value": 86.3, "unit": "ng/g"}, {"measurement": "concentration at 1.5 h", "setting": "[2]; [5]", "value": 80.5, "unit": "ng/g"}, {"measurement": "concentration at 2 h", "setting": "[2]; [5]", "value": 58.6, "unit": "ng/g"}, {"measurement": "concentration at 3 h", "setting": "[2]; rat, fat, im, 180 min, read-out: Tissue concentration of physostigmine, Fat", "value": 10.3, "unit": "ng/g"}, {"measurement": "concentration at 2.5 min", "setting": "[2]; [6]", "value": 332, "unit": "ng/g"}, {"measurement": "concentration at 5 min", "setting": "[2]; [6]", "value": 785, "unit": "ng/g"}, {"measurement": "concentration at 20 min", "setting": "[2]; [6]", "value": 371, "unit": "ng/g"}, {"measurement": "concentration at 0.5 h", "setting": "[2]; [6]", "value": 213, "unit": "ng/g"}, {"measurement": "concentration at 0.75 h", "setting": "[2]; [6]", "value": 79.2, "unit": "ng/g"}, {"measurement": "concentration at 1 h", "setting": "[2]; [6]", "value": 78.5, "unit": "ng/g"}, {"measurement": "concentration at 1.5 h", "setting": "[2]; [6]", "value": 66.9, "unit": "ng/g"}, {"measurement": "concentration at 2 h", "setting": "[2]; [6]", "value": 47.2, "unit": "ng/g"}, {"measurement": "concentration at 3 h", "setting": "[2]; rat, heart, im, 180 min, read-out: Tissue concentration of physostigmine, Heart", "value": 48.7, "unit": "ng/g"}, {"measurement": "concentration at 2.5 min", "setting": "[2]; [7]", "value": 321, "unit": "ng/g"}, {"measurement": "concentration at 5 min", "setting": "[2]; [7]", "value": 225, "unit": "ng/g"}, {"measurement": "concentration at 10 min", "setting": "[2]; [7]", "value": 540, "unit": "ng/g"}, {"measurement": "concentration at 20 min", "setting": "[2]; [7]", "value": 323, "unit": "ng/g"}, {"measurement": "concentration at 0.5 h", "setting": "[2]; [7]", "value": 243, "unit": "ng/g"}, {"measurement": "concentration at 0.75 h", "setting": "[2]; [7]", "value": 241, "unit": "ng/g"}, {"measurement": "concentration at 1 h", "setting": "[2]; [7]", "value": 86, "unit": "ng/g"}, {"measurement": "concentration at 1.5 h", "setting": "[2]; [7]", "value": 70, "unit": "ng/g"}, {"measurement": "concentration at 2 h", "setting": "[2]; [7]", "value": 35, "unit": "ng/g"}, {"measurement": "concentration at 3 h", "setting": "[2]; rat, muscle, im, 180 min, read-out: Tissue concentration of physostigmine, Muscle", "value": 37.5, "unit": "ng/g"}, {"measurement": "concentration at 2.5 min", "setting": "[2]; [8]", "value": 322, "unit": "ng/g"}, {"measurement": "concentration at 5 min", "setting": "[2]; [8]", "value": 627, "unit": "ng/g"}, {"measurement": "concentration at 10 min", "setting": "[2]; [8]", "value": 955, "unit": "ng/g"}, {"measurement": "concentration at 20 min", "setting": "[2]; [8]", "value": 986, "unit": "ng/g"}, {"measurement": "concentration at 0.5 h", "setting": "[2]; [8]", "value": 912, "unit": "ng/g"}, {"measurement": "concentration at 0.75 h", "setting": "[2]; [8]", "value": 835, "unit": "ng/g"}, {"measurement": "concentration at 1 h", "setting": "[2]; [8]", "value": 540, "unit": "ng/g"}, {"measurement": "concentration at 1.5 h", "setting": "[2]; [8]", "value": 358, "unit": "ng/g"}, {"measurement": "concentration at 2 h", "setting": "[2]; [8]", "value": 227, "unit": "ng/g"}, {"measurement": "concentration at 3 h", "setting": "[2]; rat, spleen, im, 180 min, read-out: Tissue concentration of physostigmine, Spleen", "value": 55.6, "unit": "ng/g"}, {"measurement": "lipid solubility", "setting": "[3]", "value": "high degree of lipid solubility"}, {"measurement": "solubility in biological fluids", "setting": "[3]", "value": "soluble in biological fluids"}]}]}
